Source: patent US20050176649A1, “Iap binding peptides and assays for identifying compounds that bind iap” (priority 2001, published 2005)
Residues, ends and D or L forms follow the SMILES beside them.

B1: AYPI (peptide)
peptide: AYPI
notes: Synthetic tetrapeptide
B2: ACPI (peptide)
peptide: ACPI
notes: Synthetic tetrapeptide
B3: AKPI (peptide)
peptide: AKPI
notes: Synthetic tetrapeptide
B4: AFPI (peptide)
peptide: AFPI
notes: Synthetic tetrapeptide
B5: AMPI (peptide)
peptide: AMPI
notes: Synthetic tetrapeptide
B6: AIPI (peptide)
peptide: AIPI
notes: Synthetic tetrapeptide
B7: ALPI (peptide)
peptide: ALPI
notes: Synthetic tetrapeptide
B8: AQPI (peptide)
peptide: AQPI
notes: Synthetic tetrapeptide

How the values were obtained:
BIR3 domain of XIAP = target: T1, BIR3 domain of XIAP (Homo sapiens, UniProt P98170); assay: Fluorescence displacement assay: AVPC-badan displaced from BIR3 by test tetrapeptide (typical assay, Tables 1 and 2); assay type: binding, mammalian; settings: for K: binding (equilibrium) constant for displacement of AVP-dye, position-4 library, 5 μM dye and protein, larger = greater affinity; for Intensity (470 nm): emission intensity of AVPC-badan with BIR3 and test tetrapeptide, excitation 387 nm, lower = more dye displaced; for Fraction free: fraction of AVPC-badan free (displaced from BIR3), from intensity at 470 nm
T1 construct: Recombinant XIAP-BIR3 (residues 238-358); GST (N, cleaved yes); made in house; host or cells: E. coli
T1 sequence (P98170 238-358): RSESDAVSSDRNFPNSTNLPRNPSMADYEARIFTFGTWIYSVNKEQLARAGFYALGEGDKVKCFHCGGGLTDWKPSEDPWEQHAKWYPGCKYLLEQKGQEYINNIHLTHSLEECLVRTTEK
Text: The ability to quickly assay small molecules for their effectiveness in disrupting protein-protein interactions is critical to the development of viable drug candidates. One aspect of the present invention comprises an assay to test the binding affinity of a library of tetrapeptide molecules for the BIR3 domain of an inhibitor of apoptosis protein (LAP), particularly the mammalian XIAP. The assay is based on a detectable label, preferably a fluorogenic dye molecule. In preferred embodiments, the fluorophore is attached to a tripeptide, AVP, whose sequence matches the N-terminal three residues of Smac. The general structure of this molecule, therefore, is AVP[X], wherein X is the fluorophore. The molecule is referred to herein as an “AVP-dye”. The AVP-dye packs into the groove of the BIR3, causing a large shift in emission maximum and intensity when the environment of the dye changes from water to the hydrophobic pocket of the protein. If a molecule (e.g. the native Smac protein or a tetrapeptide mimic) displaces the dye, then emission will shift back to the spectrum observed in water. Since the emission intensity is related to the binding of the tetrapeptide, the intensity can be used to estimate the equilibrium constant, K, for displacement of the AVP-dye by the tetrapeptide. The larger the equilibrium constant, the greater affinity the tetrapeptide has for the BIR3.
The aforementioned AVP-dye is used in an assay of test compounds that may, like the Smac tetrapeptide AVPI, bind to the BIR3 domain of XIAP, thereby relieving XIAP-mediated suppression of apoptosis. This is a high-throughput, cell-free assay, that is assembled as follows. A protein comprising the BIR3 domain of an IAP is placed in an assay medium comprising a suitable buffer, as described above. Preferably, this is a recombinant protein comprising the BIR3 domain, but a full IAP protein also may be used. An aliquot of the AVP-dye is added to the reaction mixture, in the presence of the test compound. Controls comprise the BIR3 and the dye in the absence of the test compound and, optionally, BIR3 and the dye in the presence of the naturally occurring tetrapeptide, AVPI. […] Alternatively, a emission spectrum is measured at the selected excitation wavelength. In one type of measurement, the test compound is added and an emission spectrum is measured by scanning from, e.g., 460-480 nm. In another type of measurement, the emission intensity at a particular wavelength, e.g., 470 nm, is measured. […] Thus, the binding affinity of the test compound may be calculated as a function of its ability to displace the dye from the BIR3 domain, according to the following calculation: [formula]
Stock solution of badan, BIR3, and buffer were mixed: 2.5 ml of badan, 1.75 ml BIR3, and 15.25 ml of buffer were mixed in a glass vial which had been chilled to 4° C. Added 390 μL of the stock solution to 50 wells in the pre-chilled 96 well plate (wells A1-E2).
Stock solution of badan and buffer were mixed: 150 μL badan and 1020 μL of buffer were mixed in a small glass vial (also chilled) and added to 3 wells on the plate in 390 μL aliquots (F1-F3).
The 96 well plate was stored over ice in an insulated bucket while the emission spectra of the samples were taken. Fifty μL of the appropriate test solution (or water, for the control experiments) was added with a micropipet, the solution mixed with a Pasteur pipet before adding the sample to the fluorescence cuvette. While one sample was being scanned, the cuvette from the previous scan was washed with EtOH and then next sample was prepared.

[1] = target: T2, BIR3 domain of XIAP (recombinant XIAP-BIR3, residues 238-358) (Homo sapiens, UniProt P98170); assay: Fluorescence-based competition assay of tetrapeptide libraries (Example 1); assay type: binding, mammalian
T2 construct: Recombinant XIAP-BIR3 (residues 238-358); GST (N, cleaved yes); made in house; host or cells: E. coli
T2 sequence (P98170 238-358): as above
Text: Expression and Purification of BIR3. […] The soluble fraction of the GST-BIR3 in the E. coli lysate was purified over a glutathione sepharose column, and further purified by anion exchange chromatography (Mono-Q, Amersham Biosciences). The fusion protein was cleaved by thrombin, and the GST portion was removed by the glutathione sepharose column. The BIR3 protein was further purified over a gel filtration column (Superdex 30, Amersham Biosciences).
Fluorescence Experiments. Luminescence spectra were recorded using a Photon Technologies, Inc. fluorometer with a Xe arc lamp and a PMT detector. […] The buffer used in all of the fluorescence experiments was 50 mM potassium phosphate, 100 mM NaCl, 2 mM 1,4-dithio-DL-threitol (DTT), pH 7.
Assay of Tetrapeptide Libraries. The samples were prepared in a 96 well plate lined with glass tubes, to prevent adsorption of the dye to plastic. The plate was stored on ice in the dark between measurements. […] 390 μL of this stock solution were added to 50 wells of the 96 well plate. 50 μL of the test tetrapeptide solutions were added and mixed immediately prior to taking the emission spectra. The final solutions were 5 μM in both badan and BIR3, and approximately 20-30 μM in the tetrapeptide solutions. […] 50 μL of water was added to these wells, again as controls, to determine the intensity of the unbound dye.
The binding of various tetrapeptide mimics to the BIR3 domain of XIAP was determined using a fluorescence-based competition assay. The assay is based on an environment-sensitive fluorogenic dye molecule, badan. Badan is a dye whose sensitivity to environmental changes has previously been used to probe protein binding interactions. […] As the dye is displaced from the binding pocket by the test molecule, the emission shifts back towards the aquated spectrum.

[2] = target: Recombinant XIAP-BIR3 (residues 238-358) (UniProt P98170); assay: fluorescence competition, displacement of AVPC-badan from BIR3
Recombinant XIAP-BIR3 (residues 238-358) (UniProt P98170), sequence (P98170 238-358 limits assumed): as the sequence (P98170 238-358) above

[3] = target: T3, Recombinant XIAP-BIR3 (residues 238-358) (UniProt P98170 238-358); assay: as above
T3 construct: also called BIR3 domain of XIAP; BIR3 protein
T3 sequence (P98170 238-358 limits assumed): as the sequence (P98170 238-358) above
Protocol: The samples were prepared in a 96 well plate lined with glass tubes, to prevent adsorption of the dye to plastic. The plate was stored on ice in the dark between measurements. A small volume cuvette, with a path length of 2 mm, was used to collect the emission spectra. […] 390 μL of this stock solution were added to 50 wells of the 96 well plate. 50 μL of the test tetrapeptide solutions were added and mixed immediately prior to taking the emission spectra. […] 50 μL of water was added to these wells, again as controls, to determine the intensity of the unbound dye.
The binding of various tetrapeptide mimics to the BIR3 domain of XIAP was determined using a fluorescence-based competition assay. […] As the dye is displaced from the binding pocket by the test molecule, the emission shifts back towards the aquated spectrum.

Molecule | K (BIR3 domain of XIAP) | Kd [1] [nM] | Kd [3] [nM] | other results
CC(C)C[C@H](NC(=O)[C@@H]1CCCN1C(=O)[C@@H](NC(=O)[C@H](C)N)C(C)C)C(N)=O [AVPL] (H-AVPL-NH2; N-terminus and C-terminus assumed) | 0.3423 | 490 |  | 
AbuVPI (peptide) |  |  |  | Fraction free [2]: 0.887; Intensity (470 nm) [2]: 34800
CC(C)[C@H](NC(=O)[C@H](C)N)C(=O)N1CCC[C@H]1C(=O)N[C@@H](Cc1ccc(O)cc1)C(N)=O [AVPY] (H-AVPY-NH2; N-terminus and C-terminus assumed) | 1.1692 | 300 |  | Intensity (470 nm) (BIR3 domain of XIAP): 39093; Fraction free (BIR3 domain of XIAP): 0.8657
CC(C)[C@H](NC(=O)[C@H](C)N)C(=O)N1CCC[C@H]1C(=O)N[C@@H](CS)C(N)=O [AVPC, Ala-Val-Pro-Cys-NH2] | 0.1034 | 1400 |  | 
CC(C)[C@H](NC(=O)[C@H](C)N)C(=O)N1CCC[C@H]1C(=O)N[C@@H](Cc1c[nH]c2ccccc12)C(N)=O [AVPW] (H-AVPW-NH2; N-terminus and C-terminus assumed) | 1.0817 | 110 |  | Intensity (470 nm) (BIR3 domain of XIAP): 23435; Fraction free (BIR3 domain of XIAP): 0.9418
CC(C)[C@H](NC(=O)[C@H](C)N)C(=O)N1CCC[C@H]1C(=O)N[C@@H](CC(=O)O)C(N)=O [AVPD] (H-AVPD-NH2; N-terminus and C-terminus assumed) | 0.1799 | 7300 |  | 
CC[C@H](C)[C@H](NC(=O)[C@@H]1CCCN1C(=O)[C@H](CCCNC(=N)N)NC(=O)[C@H](C)N)C(N)=O [ARPI] |  | 180 |  | Intensity (470 nm) (BIR3 domain of XIAP): 29455; Fraction free (BIR3 domain of XIAP): 0.9125
CSCC[C@H](NC(=O)[C@@H]1CCCN1C(=O)[C@@H](NC(=O)[C@H](C)N)C(C)C)C(N)=O [AVPM] (H-AVPM-NH2; N-terminus and C-terminus assumed) | 0.05288 | 2300 |  | 
CC(C)[C@H](NC(=O)[C@H](C)N)C(=O)N1CCC[C@H]1C(=O)N[C@H](C(N)=O)[C@@H](C)O [AVPT] (H-AVPT-NH2; N-terminus and C-terminus assumed) | 0.143 | 2100 |  | 
CC(C)[C@H](NC(=O)[C@H](C)N)C(=O)N1CCC[C@H]1C(=O)N[C@@H](Cc1c[nH]cn1)C(N)=O [AVPH] (H-AVPH-NH2; N-terminus and C-terminus assumed) | 0.07521 | 7300 |  | 
CC(C)[C@H](NC(=O)[C@H](C)N)C(=O)N1CCC[C@H]1C(=O)NCC(N)=O [AVPG] (H-AVPG-NH2; N-terminus and C-terminus assumed) | 0.08948 | 4700 |  | 
CC(C)[C@H](NC(=O)[C@H](C)N)C(=O)N1CCC[C@H]1C(=O)N[C@@H](CCCCN)C(N)=O [AVPK] (H-AVPK-NH2; N-terminus and C-terminus assumed) | 0.00702 | 28000 |  | 
B1 |  |  | 590 | 
B2 |  |  | 650 | 
B3 |  |  | 570 | 
B4 |  |  | 790 | 
B5 |  |  | 730 | 
B6 |  |  | 390 | 
B7 |  |  | 290 | 
B8 |  |  | 940 | 
